Measurements from PubChem BioAssay (NCI).
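Protocol summary: plate cells (96-well), add compound at 5 concentrations, incubate 48 h, interpolate endpoints linearly. GI50: concentration for 50% inhibition of growth. TGI: concentration producing complete growth inhibition.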

Legend:
Assay in all cases: growth of human tumour cells (NCI), 48 h
EKVX NSCLC = system: EKVX NSCLC
HCC-2998 colon = system: HCC-2998 colon
COLO 205 colon = system: COLO 205 colon
HOP-62 NSCLC = system: HOP-62 NSCLC
M14 melanoma = system: M14 melanoma
786-0 renal = system: 786-0 renal
DU-145 prostate = system: DU-145 prostate
OVCAR-8 ovarian = system: OVCAR-8 ovarian
SK-MEL-28 melanoma = system: SK-MEL-28 melanoma
ACHN renal = system: ACHN renal
SK-MEL-5 melanoma = system: SK-MEL-5 melanoma
CAKI-1 renal = system: CAKI-1 renal
MOLT-4 leukemia = system: MOLT-4 leukemia
NCI/ADR-RES ovarian = system: NCI/ADR-RES ovarian
PC-3 prostate = system: PC-3 prostate
MDA-MB-435 = system: MDA-MB-435
UACC-62 melanoma = system: UACC-62 melanoma
SW-620 colon = system: SW-620 colon
MCF7 breast = system: MCF7 breast
CCRF-CEM leukemia = system: CCRF-CEM leukemia
UACC-257 melanoma = system: UACC-257 melanoma
KM12 colon = system: KM12 colon
RPMI-8226 leukemia = system: RPMI-8226 leukemia
U251 CNS = system: U251 CNS
UO-31 renal = system: UO-31 renal
NCI-H522 lung = system: NCI-H522 lung
LOX IMVI melanoma = system: LOX IMVI melanoma
SF-295 CNS = system: SF-295 CNS
BT-549 breast = system: BT-549 breast
A498 renal = system: A498 renal
SR leukemia = system: SR leukemia
SK-MEL-2 melanoma = system: SK-MEL-2 melanoma
IGROV1 ovarian = system: IGROV1 ovarian
A549 NSCLC = system: A549 NSCLC
OVCAR-4 ovarian = system: OVCAR-4 ovarian
T-47D breast = system: T-47D breast
HCT-15 colon = system: HCT-15 colon
SNB-19 CNS = system: SNB-19 CNS
HS 578T breast = system: HS 578T breast
HT29 colon = system: HT29 colon
OVCAR-5 ovarian = system: OVCAR-5 ovarian
MALME-3M melanoma = system: MALME-3M melanoma
NCI-H23 lung = system: NCI-H23 lung
SF-268 CNS = system: SF-268 CNS
HCT-116 colon = system: HCT-116 colon
MDA-N = system: MDA-N
OVCAR-3 ovarian = system: OVCAR-3 ovarian
SK-OV-3 ovarian = system: SK-OV-3 ovarian
K-562 leukemia = system: K-562 leukemia
NCI-H460 lung = system: NCI-H460 lung
HL-60(TB) leukemia = system: HL-60(TB) leukemia
SF-539 CNS = system: SF-539 CNS

C=C1C(OCCO)OC2O[C@]3(C)CCC4[C@H](C)CCC1C24OO3 (some centres undefined)
GI50 (EKVX NSCLC): 23.2 µM | TGI (EKVX NSCLC): > 100 µM | GI50 (HCC-2998 colon): > 100 µM | TGI (HCC-2998 colon): > 100 µM | GI50 (COLO 205 colon): 2.87 µM | TGI (COLO 205 colon): 14.3 µM | GI50 (HOP-62 NSCLC): 52.7 µM | TGI (HOP-62 NSCLC): > 100 µM | GI50 (M14 melanoma): 78.4 µM | TGI (M14 melanoma): > 100 µM | GI50 (786-0 renal): 24.5 µM | TGI (786-0 renal): > 100 µM | GI50 (DU-145 prostate): 36.3 µM | TGI (DU-145 prostate): > 100 µM | GI50 (OVCAR-8 ovarian): 2.16 µM | TGI (OVCAR-8 ovarian): 12.5 µM | GI50 (SK-MEL-28 melanoma): > 100 µM | TGI (SK-MEL-28 melanoma): > 100 µM | GI50 (ACHN renal): 31.4 µM | TGI (ACHN renal): > 100 µM | GI50 (SK-MEL-5 melanoma): 23.8 µM | TGI (SK-MEL-5 melanoma): > 100 µM | GI50 (CAKI-1 renal): 19 µM | TGI (CAKI-1 renal): 40.5 µM | GI50 (MOLT-4 leukemia): 1.96 µM | TGI (MOLT-4 leukemia): 27.9 µM | GI50 (NCI/ADR-RES ovarian): 36 µM | TGI (NCI/ADR-RES ovarian): > 100 µM | GI50 (PC-3 prostate): 4.11 µM | TGI (PC-3 prostate): > 100 µM | GI50 (MDA-MB-435): 12.9 µM | TGI (MDA-MB-435): 83.6 µM | GI50 (UACC-62 melanoma): 42.7 µM | TGI (UACC-62 melanoma): > 100 µM | GI50 (SW-620 colon): 10.9 µM | TGI (SW-620 colon): > 100 µM | GI50 (MCF7 breast): 17.4 µM | TGI (MCF7 breast): > 100 µM | GI50 (CCRF-CEM leukemia): 4.92 µM | TGI (CCRF-CEM leukemia): 28.4 µM | GI50 (UACC-257 melanoma): > 100 µM | TGI (UACC-257 melanoma): > 100 µM | GI50 (KM12 colon): 6.04 µM | TGI (KM12 colon): > 100 µM | GI50 (RPMI-8226 leukemia): 0.591 µM | TGI (RPMI-8226 leukemia): 16.5 µM | GI50 (U251 CNS): 35 µM | TGI (U251 CNS): > 100 µM | GI50 (UO-31 renal): 2.78 µM | TGI (UO-31 renal): 10.2 µM | GI50 (NCI-H522 lung): 4.93 µM | TGI (NCI-H522 lung): 19.2 µM | GI50 (LOX IMVI melanoma): 4.15 µM | TGI (LOX IMVI melanoma): 19.2 µM | GI50 (SF-295 CNS): > 100 µM | TGI (SF-295 CNS): > 100 µM | GI50 (BT-549 breast): 10.8 µM | TGI (BT-549 breast): 71.2 µM | GI50 (A498 renal): > 100 µM | TGI (A498 renal): > 100 µM | GI50 (SR leukemia): 2.36 µM | TGI (SR leukemia): 26.2 µM | GI50 (SK-MEL-2 melanoma): 71.1 µM | TGI (SK-MEL-2 melanoma): > 100 µM | GI50 (IGROV1 ovarian): 12.3 µM | TGI (IGROV1 ovarian): 34.9 µM | GI50 (A549 NSCLC): 28.4 µM | TGI (A549 NSCLC): > 100 µM | GI50 (OVCAR-4 ovarian): 6.12 µM | TGI (OVCAR-4 ovarian): > 100 µM | GI50 (T-47D breast): 1.56 µM | TGI (T-47D breast): > 100 µM | GI50 (HCT-15 colon): 3.88 µM | TGI (HCT-15 colon): > 100 µM | GI50 (SNB-19 CNS): > 100 µM | TGI (SNB-19 CNS): > 100 µM | GI50 (HS 578T breast): 19.9 µM | TGI (HS 578T breast): > 100 µM | GI50 (HT29 colon): 7.54 µM | TGI (HT29 colon): > 100 µM | GI50 (OVCAR-5 ovarian): 19.6 µM | TGI (OVCAR-5 ovarian): > 100 µM | GI50 (MALME-3M melanoma): 52.7 µM | TGI (MALME-3M melanoma): > 100 µM | GI50 (NCI-H23 lung): 7.46 µM | TGI (NCI-H23 lung): 53.6 µM | GI50 (SF-268 CNS): 43.4 µM | TGI (SF-268 CNS): > 100 µM | GI50 (HCT-116 colon): 8.69 µM | TGI (HCT-116 colon): > 100 µM | GI50 (MDA-N): 14.8 µM | TGI (MDA-N): 87.9 µM | GI50 (OVCAR-3 ovarian): 15.6 µM | TGI (OVCAR-3 ovarian): > 100 µM | GI50 (SK-OV-3 ovarian): > 100 µM | TGI (SK-OV-3 ovarian): > 100 µM | GI50 (K-562 leukemia): 4.16 µM | TGI (K-562 leukemia): > 100 µM | GI50 (NCI-H460 lung): > 100 µM | TGI (NCI-H460 lung): > 100 µM | GI50 (HL-60(TB) leukemia): 3.1 µM | TGI (HL-60(TB) leukemia): 15.6 µM | GI50 (SF-539 CNS): 36.6 µM | TGI (SF-539 CNS): > 100 µM
